Test results taken from article PMC7321161, “The Intriguing Effects of Substituents in the N-Phenethyl Moiety of Norhydromorphone: A Bifunctional Opioid from a Set of “Tail Wags Dog” Experiments” (Molecules, 2020).
Several values for one entry are separate records, joined by “and”; a condition that tells them apart may be missing. Identical values can stand only once. Entries after “also recorded” stand apart in the source; their conditions may differ. Like-named read-outs stand apart in the source and are kept apart here.

Columns and labels:
[1] = system: squirrel monkeys; assay: Warm-water tail-withdrawal latency in squirrel monkeys; format: in vivo, Saimiri sciureus; details: for ED50: Saimiri, in Primates; for Antinociceptive effect, tail withdrawal latency at 50, 52 and 55 °C: cumulative doses
[2] = Squirrel monkey ventilation (whole-body plethysmograph, air or 5% CO2); format: in vivo, Saimiri sciureus; details: male, monkey, in vivo, other: injection; squirrel monkeys; dose required to decrease minute volume in 5% CO2 to 50% of baseline; read-out: ED50 Respiratory Depression
Description: (§1) Gas (either air or a 5% CO2 in air mixture) was introduced to and extracted from the chamber at a constant flow rate of 5 L/min. Experimental sessions consisted of 4–6 consecutive 30 min cycles, each comprising a 15 min exposure to air followed by a 15 min exposure to 5% CO2. Drug effects were determined using cumulative dosing procedures, and injections were administered following each exposure to 5% CO2. Respiratory rate and tidal volume (mL/breath) were recorded over 1 min periods and were multiplied to provide minute volumes. Data from the last three minutes of each exposure to air or CO2 were averaged and used for analysis of drug effects on ventilation.

[3] = Operant responding (FR10 food reinforcement) in squirrel monkeys; details: male, monkey, in vivo
[4] = system: squirrel monkeys; assay: as above; details: squirrel monkeys
[5] = system: Swiss Webster mice; assay: Respiration rate and arterial oxygen saturation in mice (MouseOx pulse oximeter); details: for Effect on oxygen saturation (SpO2) in mice: 6 min to 45 min post-injection, data not shown; for Effect on respiration rate in mice: normal air, s.c., 2i 0.01–0.1 mg/kg, morphine 10 mg/kg, AUC 6–45 min post injection, vs saline
[6] = biological target: T1, μ-opioid receptor (MOR) (Rattus norvegicus, UniProt P33535); assay: Opioid receptor binding, μ sites ([3H]DAMGO), rat brain homogenate
T1 construct: Frozen whole rat brains excluding cerebellum were thawed on ice; from tissue; host or cells: whole rat brain excluding cerebellum, membrane homogenate
T1 sequence (P33535 whole entry): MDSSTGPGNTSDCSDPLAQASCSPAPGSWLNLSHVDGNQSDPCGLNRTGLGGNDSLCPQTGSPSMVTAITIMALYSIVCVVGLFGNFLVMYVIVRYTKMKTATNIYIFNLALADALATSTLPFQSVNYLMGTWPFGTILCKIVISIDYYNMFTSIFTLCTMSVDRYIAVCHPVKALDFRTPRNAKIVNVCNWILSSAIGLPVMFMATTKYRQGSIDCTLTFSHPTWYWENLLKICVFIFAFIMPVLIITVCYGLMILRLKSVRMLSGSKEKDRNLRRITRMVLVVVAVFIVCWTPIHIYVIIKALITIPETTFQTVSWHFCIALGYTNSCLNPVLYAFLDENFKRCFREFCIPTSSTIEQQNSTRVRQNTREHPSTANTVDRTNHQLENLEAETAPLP

[7] = biological target: T2, δ-opioid receptor (DOR) (Rattus norvegicus, UniProt P33533); assay: Opioid receptor binding, δ sites ([3H]DADLE), rat brain homogenate
T2 construct: Frozen whole rat brains excluding cerebellum were thawed on ice; from tissue; host or cells: whole rat brain excluding cerebellum, membrane homogenate
T2 sequence (P33533 whole entry): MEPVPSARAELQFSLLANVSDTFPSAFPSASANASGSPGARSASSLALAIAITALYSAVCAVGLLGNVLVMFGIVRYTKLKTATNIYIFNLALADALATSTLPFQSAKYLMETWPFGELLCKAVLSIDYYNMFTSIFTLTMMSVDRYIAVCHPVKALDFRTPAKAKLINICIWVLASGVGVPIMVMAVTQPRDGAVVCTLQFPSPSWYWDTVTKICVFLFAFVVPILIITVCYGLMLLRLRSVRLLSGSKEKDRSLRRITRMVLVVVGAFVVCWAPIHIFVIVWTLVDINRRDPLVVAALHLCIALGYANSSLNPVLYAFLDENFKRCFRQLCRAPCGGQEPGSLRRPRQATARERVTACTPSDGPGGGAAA

[8] = biological target: T3, κ-opioid receptor (KOR) (Rattus norvegicus, UniProt P34975); assay: Opioid receptor binding, κ sites ([3H]U69,593), rat brain homogenate; details: for Ki: KOR Binding (Ki), whole rat brain excluding cerebellum, [3H]U69,593, Ki ± SEM
T3 construct: Frozen whole rat brains excluding cerebellum were thawed on ice; from tissue; host or cells: whole rat brain excluding cerebellum, membrane homogenate
T3 sequence (P34975 whole entry): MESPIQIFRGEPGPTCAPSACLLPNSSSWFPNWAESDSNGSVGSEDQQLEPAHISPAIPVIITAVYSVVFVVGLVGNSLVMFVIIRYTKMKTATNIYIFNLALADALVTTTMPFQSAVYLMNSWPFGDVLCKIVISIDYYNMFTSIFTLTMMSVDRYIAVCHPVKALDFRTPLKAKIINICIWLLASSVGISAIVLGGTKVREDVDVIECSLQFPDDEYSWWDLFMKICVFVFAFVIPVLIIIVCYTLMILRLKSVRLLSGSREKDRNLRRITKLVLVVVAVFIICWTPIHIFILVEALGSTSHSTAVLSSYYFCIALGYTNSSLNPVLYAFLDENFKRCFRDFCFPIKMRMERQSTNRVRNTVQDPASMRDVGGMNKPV

[9] = biological target: T4, rat MOR (Rattus norvegicus, UniProt P33535); assay: Stimulation of [35S]GTPγS binding, C6 glioma cell membranes expressing MOR; format: biochemical; details: for MOR activity type in the [35S]GTPγS assay: antagonist activity assumed from high MOR affinity and lack of stimulation; for MOR % Stimulation, [35S]GTPγS: compared to standard maximal DAMGO
T4 construct: expressed in transfected cells; host or cells: C6 rat glioma cells, stably transfected; membranes
T4 sequence (P33535 whole entry): as the sequence (P33535 whole entry) above

[10] = biological target: T5, rat DOR (Rattus norvegicus, UniProt P33533); assay: Stimulation of [35S]GTPγS binding, C6 glioma cell membranes expressing DOR; format: biochemical; details: for EC50: DOR EC50, [35S]GTPγS, C6 cells expressing DOR, mean ± SEM; for DOR % Stimulation, [35S]GTPγS: compared to standard maximal DPDPE
T5 construct: expressed in transfected cells; host or cells: C6 rat glioma cells, stably transfected; membranes
T5 sequence (P33533 whole entry): as the sequence (P33533 whole entry) above

[11] = biological target: T6, human KOR (Homo sapiens, UniProt P41145); assay: Stimulation of [35S]GTPγS binding, CHO cell membranes expressing KOR; format: biochemical; details: for KOR EC50, [35S]GTPγS: CHO cells expressing KOR, mean ± SEM, DNS = no stimulation
T6 construct: expressed in transfected cells; membranes
T6 sequence (P41145 whole entry): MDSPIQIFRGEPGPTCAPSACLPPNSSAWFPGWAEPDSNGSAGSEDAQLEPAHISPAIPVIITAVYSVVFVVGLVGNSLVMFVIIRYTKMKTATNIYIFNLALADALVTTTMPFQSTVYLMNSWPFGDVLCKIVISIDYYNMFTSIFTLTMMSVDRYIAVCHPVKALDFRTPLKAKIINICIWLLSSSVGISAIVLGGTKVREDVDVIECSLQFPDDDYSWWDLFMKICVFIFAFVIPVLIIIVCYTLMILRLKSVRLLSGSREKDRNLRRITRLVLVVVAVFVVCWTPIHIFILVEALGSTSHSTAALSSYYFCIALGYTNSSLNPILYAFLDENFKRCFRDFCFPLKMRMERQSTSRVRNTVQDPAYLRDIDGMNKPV

[12] = biological target: T7, human μ-opioid receptor (OPRM1) (Homo sapiens, UniProt P35372); assay: cell-based; details: for EC50: MOR cAMP Agonist Potency ± SEM; for Emax: OPRM1, read-out: MOR cAMP % Efficacy
T7 construct: host or cells: HitHunter CHO-K1 cells
T7 sequence (P35372 whole entry): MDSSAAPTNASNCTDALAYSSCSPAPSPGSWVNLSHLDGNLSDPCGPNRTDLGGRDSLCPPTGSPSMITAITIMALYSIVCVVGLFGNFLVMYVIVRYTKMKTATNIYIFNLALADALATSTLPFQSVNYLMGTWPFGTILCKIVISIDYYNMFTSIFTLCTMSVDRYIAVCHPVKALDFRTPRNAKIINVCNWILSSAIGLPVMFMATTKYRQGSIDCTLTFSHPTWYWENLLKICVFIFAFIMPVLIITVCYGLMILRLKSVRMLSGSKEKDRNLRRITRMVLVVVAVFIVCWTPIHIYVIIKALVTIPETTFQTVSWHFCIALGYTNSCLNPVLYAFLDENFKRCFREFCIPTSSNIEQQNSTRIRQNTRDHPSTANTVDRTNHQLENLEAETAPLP

[13] = biological target: T8, human δ-receptor (OPRMD1) (Homo sapiens, UniProt P41143); assay: cell-based; format: cell-based; details: for Emax: CHO-K1, read-out: DOR cAMP % Efficacy; for EC50: DOR cAMP Agonist Potency ± SEM
T8 construct: host or cells: HitHunter CHO-K1 cells
T8 sequence (P41143 whole entry): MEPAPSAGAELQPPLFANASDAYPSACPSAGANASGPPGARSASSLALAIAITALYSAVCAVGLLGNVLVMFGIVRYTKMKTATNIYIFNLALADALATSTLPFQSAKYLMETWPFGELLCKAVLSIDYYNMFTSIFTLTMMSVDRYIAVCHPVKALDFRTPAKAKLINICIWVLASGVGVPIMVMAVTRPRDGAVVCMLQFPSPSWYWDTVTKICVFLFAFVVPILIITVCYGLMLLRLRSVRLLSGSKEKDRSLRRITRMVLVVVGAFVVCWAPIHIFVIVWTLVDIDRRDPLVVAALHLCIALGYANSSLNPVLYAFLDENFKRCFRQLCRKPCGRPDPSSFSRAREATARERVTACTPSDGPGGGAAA

[14] = biological target: T9, human κ-opioid receptor (OPRK1) (Homo sapiens, UniProt P41145); assay: cell-based; details: for Emax: CHO-K1, read-out: KOR cAMP % Efficacy; for EC50: KOR cAMP Agonist Potency ± SEM
T9 construct: host or cells: HitHunter CHO-K1 cells
T9 sequence (P41145 whole entry): as the sequence (P41145 whole entry) above

[15] = biological target: T10, human μ-opioid receptor β-arrestin-2 (Homo sapiens, UniProt P35372); assay: cell-based; details: for Emax: read-out: MOR Mediated β-arrestin Recruitment (% Control, Emax DAMGO)
T10 construct: enzyme fragment for EFC (β-galactosidase ProLink fragment, by own knowledge of the PathHunter system); host or cells: PathHunter CHO cells
T10 sequence (P35372 whole entry, the tested form may be a part): as the sequence (P35372 whole entry) above

[16] = system: squirrel monkeys; assay: Squirrel monkey ventilation (whole-body plethysmograph, air or 5% CO2); format: in vivo, Saimiri sciureus
Description: as §1

[17] = dose required to increase tail withdrawal latency to 5 s, read-out: ED50 Antinociception (52 °C)

| SMILES | ED50 [1, 17] [mg/kg] | Antinociceptive effect, tail withdrawal latency at 50, 52 and 55 °C [1] | ED50 [2] [mg/kg] | Ki [6] [nM] | Ki [7] [nM] | Ki [8] [nM] | MOR activity type in the [35S]GTPγS assay [9] | EC50 [10] [nM] | DOR % Stimulation, [35S]GTPγS [10] | EC50 [12] [nM] | Emax [12] [%] | Emax [13] [%] | EC50 [13] | Emax [14] [%] | EC50 [14] | Bias Factor [15] | EC50 [15] [nM] | Emax [15] [%] | EC50 [9] [nM] | MOR % Stimulation, [35S]GTPγS [9] [%] | further results |
| --- | --- | --- | --- | --- | --- | --- | --- | --- | --- | --- | --- | --- | --- | --- | --- | --- | --- | --- | --- | --- | --- |
| CN1CC[C@]23c4c5ccc(O)c4O[C@H]2[C@@H](O)C=C[C@H]3[C@H]1C5 [Morphine, reference compound] | 0.14 | full antinociceptive effects at all three water temperatures | 1.06 | – | – | – | – | – | – | – | – | – | – | – | – | – | – | – | – | – | ED50 [3]: 1.3 mg/kg; Behavioral impairment (decreases in operant performance, reinforcers obtained) [4]: dose-related behavioral impairment; Effect on oxygen saturation (SpO2) in mice [5]: neither morphine nor 2i had any effect; Effect on respiration rate in mice [5]: significantly reduced respiratory rate; Effect on respiration rate in mice ([5]; listed as morphine): significantly reduced; also recorded: significantly decreased respiratory rate |
| COc1ccc(CCN2CC[C@]34c5c6ccc(O)c5O[C@H]3C(=O)CCC4C2C6)cc1 (stereo partly drawn) [Compound 2d, (7aR,12bS)-9-Hydroxy-3-(4-methoxyphenethyl)-2,3,4,4a,5,6-hexahydro-1H-4,12-methanobenzofuro[3,2-e]-isoquinolin-7(7aH)-one] | – | – | – | 0.67 ± 0.05 | 5.43 ± 0.47 | 26.3 ± 1.9 | MOR antagonist | 33.6 ± 6.4 | 49% and 48.9 ± 3.2% | 0.13 | 103 | 97.5 | 2.7 nM and 2.71 nM | 96.2 | 7.4 nM and 7.38 nM | 2.69 | 11.2 | 23 | – | – | MOR EC50, [35S]GTPγS ([9]; C6 cells expressing MOR, mean ± SEM, DNS = no stimulation): DNS; EC50 [11]: 5.9 ± 1.7 nM; KOR % Stimulation, [35S]GTPγS ([11]; compared to standard maximal U69593): 21.8% and 21.8 ± 0.8% |
| O=C1CCC2C3Cc4ccc(O)c5c4[C@@]2(CCN3CCc2ccccc2F)[C@H]1O5 (stereo partly drawn) [Compound 2g, (7aR,12bS)-9-Hydroxy-3-(2-fluorophenethyl)-2,3,4,4a,5,6-hexahydro-1H-4,12-methanobenzofuro[3,2-e]-isoquinolin-7(7aH)-one] | – | – | – | 0.32 ± 0.04 | 3.57 ± 0.49 | 23.2 ± 2.8 | – | 92.7 ± 17 | 83.0 ± 3.3% | 0.01 | 101 | 93.8 | 0.26 nM | 74 | 19.9 nM | 1.37 | 1.7 | 73.2 | 2.1 ± 0.7 | 100 ± 0.3 | KOR EC50, [35S]GTPγS [11]: DNS |
| O=C1CCC2C3Cc4ccc(O)c5c4[C@@]2(CCN3CCc2ccc(Cl)cc2)[C@H]1O5 (stereo partly drawn) [Compound 2i, (7aR,12bS)-3-(4-Chlorophenethyl)-9-hydroxy-2,3,4,4a,5,6-hexahydro-1H-4,12-methanobenzofuro[3,2-e]-isoquinolin-7(7aH)-one] | 0.015 | full effect at moderate (50 °C) and hot (52 °C) but not at very hot (55 °C) water temperatures | 0.057 | 1.09 ± 0.06 | 7.89 ± 1.1 | – | potent partial MOR agonist | 2.4 ± 0.7 | 83.8 ± 3.7% | 0.05 | 98.8 | 84.8 | 0.53 nM | 76.6 | 55 nM and 55.2 nM | 0.82 | 2.44 | 44.8 | 2 ± 1 | 39.0 ± 2.1 | δ/μ ratio in opioid receptor binding studies ([7]; DOR Ki / MOR Ki): about 7; KOR Binding, exploratory binding assay ([8]; radioligand displacement at 100 nM): NT (NT = not tested—inactive (<50% activity at 100 nM concentration in exploratory binding assays (displaced less than half of radioligand)); DOR activity type in the [35S]GTPγS assay [10]: potent full DOR agonist; EC50 δ/μ ratio in the cAMP assay [13]: 10; ED50 ([1]; read-out: ED50 Antinociception (50 °C), tail withdrawal, 50 °C water): 0.01 mg/kg; Effect on ventilation (minute volume) during exposure to 5% CO2 mixed in air (hypercapnia) [16]: significantly reduced minute volume in 5% CO2; also recorded: respiration was depressed; also recorded: significantly decreased ventilation; Effect on respiratory rate or ventilation (minute volume) during exposure to air alone ([16]; 2i 0.003–0.1 mg/kg, morphine 0.03–3.0 mg/kg): did not depress respiration; also recorded: neither 2i (0.003–0.1 mg/kg) nor morphine (0.03–3.0 mg/kg) had effects; ED50 [3]: 0.022 mg/kg; Behavioral impairment (decreases in operant performance, reinforcers obtained) [4]: dose-related behavioral impairment; Effect on oxygen saturation (SpO2) in mice [5]: neither morphine nor 2i had any effect; Effect on respiration rate in mice [5]: did not depress respiration rate; also recorded: no effect on respiration rate |
| O=C1CCC2C3Cc4ccc(O)c5c4[C@@]2(CCN3CCc2ccc(F)cc2)[C@H]1O5 (stereo partly drawn) [Compound 2e, (7aR,12bS)-9-Hydroxy-3-(4-fluorophenethyl)-2,3,4,4a,5,6-hexahydro-1H-4,12-methanobenzofuro[3,2-e]-isoquinolin-7(7aH)-one] | – | – | – | 0.87 ± 0.1 | 13.4 ± 0.9 | 44.3 ± 6 | potent partial MOR agonist | 64.2 ± 9.9 | – | 0.17 | 101 | 98.1 | 2.58 nM | 80 | 19.9 nM | 1.39 | 15.5 | 45.8 | 2.5 ± 0.3 | 42.6 ± 2.9 | DOR activity type in the [35S]GTPγS assay [10]: weak partial DOR agonist; KOR EC50, [35S]GTPγS [11]: DNS |
